In ChEMBL document CHEMBL4402573, “Discovery and Optimization of α-Mangostin Derivatives as Novel PDE4 Inhibitors for the Treatment of Vascular Dementia” (J Med Chem, 2020):
Active and inactive are the calls of the source. The rule behind the calls is not given here.

Experiments:
[1] = biological target: Voltage-gated inwardly rectifying potassium channel KCNH2 (Homo sapiens, UniProt Q12809); experiment: Inhibition of human ERG expressed in CHO cells by automated patch clamp electrophysiology; format: cell-based
[2] = Tmax in Sprague-Dawley rat at 2.5 mg/kg, iv measured upto 24 hrs by LC-MS/MS analysis; format: ADME, organism-based; settings: in vivo
[3] = biological target: 3',5'-cyclic-AMP phosphodiesterase 4D (Homo sapiens, UniProt Q08499); experiment: Inhibition of human PDE4D2 (86 to 413 residues) expressed in Escherichia coli BL21 codon-plus cells using [3H]cAMP as substrate incubated for 15 mins by liquid scintillation counting method
[4] = biological target: T1, 3',5'-cyclic-AMP phosphodiesterase 4B (Homo sapiens, UniProt Q07343); experiment: Inhibition of human PDE4B1 (1 to 736 residues) expressed in Escherichia coli BL21 codon-plus cells using [3H]cAMP as substrate incubated for 15 mins by liquid scintillation counting method
[5] = Inhibition of human PDE4D7 (1 to 748 residues) expressed in Escherichia coli BL21 codon-plus cells using [3H]cAMP as substrate incubated for 15 mins by liquid scintillation counting method
[6] = biological target: cGMP-dependent 3',5'-cyclic phosphodiesterase (Homo sapiens, UniProt O00408); experiment: Inhibition of human PDE2A (580 to 919 residues) expressed in Escherichia coli BL21 codon-plus cells using [3H]cGMP as substrate incubated for 15 mins by liquid scintillation counting method
Homo sapiens [7] = species on record: Homo sapiens; experiment: Selectivity index, ratio of IC50 for human PDE1B (10 to 487 residues) expressed in Escherichia coli BL21 codon-plus cells to IC50 for human PDE4D2 (86 to 413 residues) expressed in Escherichia coli BL21 codon-plus cells
Homo sapiens [8] = species on record: Homo sapiens; experiment: Selectivity index, ratio of IC50 for human PDE3A (679 to 1087 residues) expressed in Escherichia coli BL21 codon-plus cells to IC50 for human PDE4D2 (86 to 413 residues) expressed in Escherichia coli BL21 codon-plus cells
Homo sapiens [9] = species on record: Homo sapiens; experiment: Selectivity index, ratio of IC50 for human PDE7A1 (130 to 482 residues) expressed in Escherichia coli BL21 codon-plus cells to IC50 for human PDE4D2 (86 to 413 residues) expressed in Escherichia coli BL21 codon-plus cells
Homo sapiens [10] = species on record: Homo sapiens; experiment: Selectivity index, ratio of IC50 for human PDE9A2 (181 to 506 residues) expressed in Escherichia coli BL21 codon-plus cells to IC50 for human PDE4D2 (86 to 413 residues) expressed in Escherichia coli BL21 codon-plus cells
[11] = Toxicity in Beagle dog assessed as animals exhibiting emesis at 10 mg/kg, po observed for 180 mins; format: organism-based, Canis lupus familiaris; settings: in vivo, 3 h
[12] = Half life in Sprague-Dawley rat at 5 mg/kg, po measured upto 24 hrs by LC-MS/MS analysis; format: ADME, organism-based; settings: in vivo
[13] = AUC(0 to infinity) in Sprague-Dawley rat at 5 mg/kg, po measured upto 24 hrs by LC-MS/MS analysis; format: ADME, organism-based; set-up: dose 5 mg/kg, time infinity, route oral; settings: in vivo
Cytochrome P450 2C9 = Cytochrome P450 2C9 (Homo sapiens, UniProt P11712); experiment: Inhibition of human CYP2C9; format: ADME
Cytochrome P450 2D6 = Cytochrome P450 2D6 (Homo sapiens, UniProt P10635); experiment: Inhibition of human CYP2D6; format: ADME
Mus musculus = experiment: Anti-VaD activity against UCCAO-induced spatial memory deficient C57BL/6J mouse model assessed as improvement in spatial learning and memory by measuring increase in latency time at 10 mg/kg, po administered for 21 days by passive avoidance test; format: functional, organism-based
[14] = biological target: T1, 3',5'-cyclic-AMP phosphodiesterase 4B; experiment: Partial inhibition of human PDE4B1 (1 to 736 residues) expressed in Escherichia coli BL21 codon-plus cells using [3H]cAMP as substrate incubated with compound at high concentrations for 15 mins by liquid scintillation counting method relative to control

T1 sequence (Q07343 whole entry, the tested form may be a part): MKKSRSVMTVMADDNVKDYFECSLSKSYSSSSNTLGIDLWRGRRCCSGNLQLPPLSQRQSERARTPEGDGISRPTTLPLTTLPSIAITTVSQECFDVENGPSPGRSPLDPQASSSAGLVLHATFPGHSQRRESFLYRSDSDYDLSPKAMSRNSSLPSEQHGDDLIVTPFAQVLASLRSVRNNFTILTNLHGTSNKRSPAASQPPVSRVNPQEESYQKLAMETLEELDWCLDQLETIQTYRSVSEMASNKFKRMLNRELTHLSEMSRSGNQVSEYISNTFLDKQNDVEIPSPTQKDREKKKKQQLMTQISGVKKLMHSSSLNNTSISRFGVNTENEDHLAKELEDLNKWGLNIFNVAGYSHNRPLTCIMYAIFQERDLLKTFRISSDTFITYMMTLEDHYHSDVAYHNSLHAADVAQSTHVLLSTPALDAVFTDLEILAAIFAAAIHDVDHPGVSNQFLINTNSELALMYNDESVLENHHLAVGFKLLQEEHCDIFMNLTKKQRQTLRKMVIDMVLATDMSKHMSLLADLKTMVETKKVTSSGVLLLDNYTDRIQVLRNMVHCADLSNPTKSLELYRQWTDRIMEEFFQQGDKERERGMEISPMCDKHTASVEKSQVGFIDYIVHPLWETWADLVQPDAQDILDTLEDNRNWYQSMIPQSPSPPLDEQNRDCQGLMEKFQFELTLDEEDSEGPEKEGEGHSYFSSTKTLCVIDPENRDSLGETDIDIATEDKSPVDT
Voltage-gated inwardly rectifying potassium channel KCNH2, sequence (Q12809 whole entry): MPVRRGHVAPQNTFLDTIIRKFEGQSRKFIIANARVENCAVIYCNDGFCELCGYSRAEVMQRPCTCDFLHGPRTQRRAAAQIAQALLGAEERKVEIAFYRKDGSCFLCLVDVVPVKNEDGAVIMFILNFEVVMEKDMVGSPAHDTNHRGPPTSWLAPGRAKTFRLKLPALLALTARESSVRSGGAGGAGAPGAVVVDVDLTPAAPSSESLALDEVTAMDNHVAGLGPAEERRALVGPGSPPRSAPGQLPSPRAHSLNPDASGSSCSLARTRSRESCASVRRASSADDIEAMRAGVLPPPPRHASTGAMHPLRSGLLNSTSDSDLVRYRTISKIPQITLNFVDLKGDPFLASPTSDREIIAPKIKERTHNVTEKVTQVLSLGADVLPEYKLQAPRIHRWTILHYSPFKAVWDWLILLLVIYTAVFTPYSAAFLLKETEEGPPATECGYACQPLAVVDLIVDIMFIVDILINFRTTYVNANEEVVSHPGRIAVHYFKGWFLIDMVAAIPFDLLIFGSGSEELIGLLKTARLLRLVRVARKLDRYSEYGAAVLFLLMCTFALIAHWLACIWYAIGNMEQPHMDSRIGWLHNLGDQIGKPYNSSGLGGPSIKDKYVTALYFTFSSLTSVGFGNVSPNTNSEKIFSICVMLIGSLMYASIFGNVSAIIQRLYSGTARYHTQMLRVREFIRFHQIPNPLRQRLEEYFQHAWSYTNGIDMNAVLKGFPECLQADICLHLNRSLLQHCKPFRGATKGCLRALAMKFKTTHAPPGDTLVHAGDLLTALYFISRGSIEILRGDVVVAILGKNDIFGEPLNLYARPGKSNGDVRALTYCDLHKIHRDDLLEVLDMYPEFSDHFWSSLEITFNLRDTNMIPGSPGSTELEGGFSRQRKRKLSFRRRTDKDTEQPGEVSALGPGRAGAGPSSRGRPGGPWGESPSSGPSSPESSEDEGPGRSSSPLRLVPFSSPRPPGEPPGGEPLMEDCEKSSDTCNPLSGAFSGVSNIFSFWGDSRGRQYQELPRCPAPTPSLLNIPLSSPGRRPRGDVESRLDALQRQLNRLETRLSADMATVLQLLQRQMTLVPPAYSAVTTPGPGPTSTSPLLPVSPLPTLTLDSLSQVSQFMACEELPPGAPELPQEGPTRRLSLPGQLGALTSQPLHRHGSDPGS
Cytochrome P450 2D6, sequence (P10635 whole entry): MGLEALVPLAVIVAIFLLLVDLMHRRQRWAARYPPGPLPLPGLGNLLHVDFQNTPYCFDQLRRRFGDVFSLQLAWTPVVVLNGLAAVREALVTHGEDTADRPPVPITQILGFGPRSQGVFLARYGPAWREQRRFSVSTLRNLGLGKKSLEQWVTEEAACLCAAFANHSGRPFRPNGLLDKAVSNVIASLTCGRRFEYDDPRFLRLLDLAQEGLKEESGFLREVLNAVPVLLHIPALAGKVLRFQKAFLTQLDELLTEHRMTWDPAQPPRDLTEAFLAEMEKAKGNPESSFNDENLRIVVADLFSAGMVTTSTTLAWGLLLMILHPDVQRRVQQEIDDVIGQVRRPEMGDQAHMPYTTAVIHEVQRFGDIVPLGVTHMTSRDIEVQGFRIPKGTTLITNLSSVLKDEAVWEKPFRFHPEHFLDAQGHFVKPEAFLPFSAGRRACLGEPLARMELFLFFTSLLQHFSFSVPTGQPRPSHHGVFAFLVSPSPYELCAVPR
3',5'-cyclic-AMP phosphodiesterase 4D, sequence (Q08499 whole entry, the tested form may be a part): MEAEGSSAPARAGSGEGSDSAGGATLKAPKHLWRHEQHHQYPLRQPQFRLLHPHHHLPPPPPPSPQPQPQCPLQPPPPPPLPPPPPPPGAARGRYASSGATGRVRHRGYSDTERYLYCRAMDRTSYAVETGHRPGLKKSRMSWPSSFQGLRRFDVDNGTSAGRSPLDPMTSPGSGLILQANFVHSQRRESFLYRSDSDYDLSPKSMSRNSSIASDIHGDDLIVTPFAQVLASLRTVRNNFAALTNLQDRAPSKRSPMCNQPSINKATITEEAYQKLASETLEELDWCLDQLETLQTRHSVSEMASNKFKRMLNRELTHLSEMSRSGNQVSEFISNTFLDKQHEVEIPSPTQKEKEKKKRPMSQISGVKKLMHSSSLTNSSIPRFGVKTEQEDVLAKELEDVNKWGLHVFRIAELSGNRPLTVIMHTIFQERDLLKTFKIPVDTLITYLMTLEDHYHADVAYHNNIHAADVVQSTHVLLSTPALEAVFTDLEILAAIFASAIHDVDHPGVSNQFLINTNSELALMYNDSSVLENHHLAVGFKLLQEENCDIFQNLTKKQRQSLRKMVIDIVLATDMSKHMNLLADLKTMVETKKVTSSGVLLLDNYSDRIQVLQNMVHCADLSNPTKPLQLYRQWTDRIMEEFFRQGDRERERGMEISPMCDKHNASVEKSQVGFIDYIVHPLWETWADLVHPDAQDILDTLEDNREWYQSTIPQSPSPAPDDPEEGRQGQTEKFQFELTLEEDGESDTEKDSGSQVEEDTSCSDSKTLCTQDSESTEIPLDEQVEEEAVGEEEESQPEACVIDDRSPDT
cGMP-dependent 3',5'-cyclic phosphodiesterase, sequence (O00408 whole entry, the tested form may be a part): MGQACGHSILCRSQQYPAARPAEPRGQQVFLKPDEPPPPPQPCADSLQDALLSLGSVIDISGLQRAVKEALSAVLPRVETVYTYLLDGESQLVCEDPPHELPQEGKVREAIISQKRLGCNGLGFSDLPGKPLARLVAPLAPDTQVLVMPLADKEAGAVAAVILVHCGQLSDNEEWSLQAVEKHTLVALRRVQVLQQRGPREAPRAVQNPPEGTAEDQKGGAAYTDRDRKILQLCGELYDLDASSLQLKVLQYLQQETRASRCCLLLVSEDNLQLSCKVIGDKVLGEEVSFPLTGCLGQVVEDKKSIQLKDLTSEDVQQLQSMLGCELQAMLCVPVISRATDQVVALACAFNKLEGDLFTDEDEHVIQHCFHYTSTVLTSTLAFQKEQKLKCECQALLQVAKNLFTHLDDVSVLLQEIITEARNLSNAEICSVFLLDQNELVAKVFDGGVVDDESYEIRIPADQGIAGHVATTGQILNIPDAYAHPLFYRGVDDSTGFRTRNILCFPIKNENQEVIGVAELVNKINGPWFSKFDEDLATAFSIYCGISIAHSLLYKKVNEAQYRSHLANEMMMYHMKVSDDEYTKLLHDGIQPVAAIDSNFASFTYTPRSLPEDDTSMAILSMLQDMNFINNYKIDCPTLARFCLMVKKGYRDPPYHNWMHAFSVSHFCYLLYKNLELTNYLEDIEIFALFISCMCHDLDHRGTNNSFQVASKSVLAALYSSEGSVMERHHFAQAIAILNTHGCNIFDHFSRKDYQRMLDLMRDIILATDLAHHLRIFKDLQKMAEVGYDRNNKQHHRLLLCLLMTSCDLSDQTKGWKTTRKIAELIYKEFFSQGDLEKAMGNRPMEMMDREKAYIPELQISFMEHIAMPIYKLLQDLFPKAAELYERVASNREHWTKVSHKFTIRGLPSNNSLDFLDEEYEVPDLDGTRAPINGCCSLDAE
Cytochrome P450 2C9, sequence (P11712 whole entry): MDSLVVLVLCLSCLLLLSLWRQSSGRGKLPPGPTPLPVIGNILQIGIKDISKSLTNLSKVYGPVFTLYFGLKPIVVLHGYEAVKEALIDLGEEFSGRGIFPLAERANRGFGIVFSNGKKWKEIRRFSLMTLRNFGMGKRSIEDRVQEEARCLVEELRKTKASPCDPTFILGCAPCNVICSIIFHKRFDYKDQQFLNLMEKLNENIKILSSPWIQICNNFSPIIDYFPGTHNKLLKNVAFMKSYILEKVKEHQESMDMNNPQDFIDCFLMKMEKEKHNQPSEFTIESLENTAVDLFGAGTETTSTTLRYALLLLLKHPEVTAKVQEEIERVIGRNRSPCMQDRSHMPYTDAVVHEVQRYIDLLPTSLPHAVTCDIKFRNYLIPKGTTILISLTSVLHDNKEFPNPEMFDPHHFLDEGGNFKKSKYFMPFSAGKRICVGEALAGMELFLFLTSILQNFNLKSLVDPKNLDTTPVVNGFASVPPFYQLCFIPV

COc1c(OCCCCCCC(=O)O)cc2oc3cc4c(c(O)c3c(=O)c2c1CC=C(C)C)C=CC(C)(C)O4
IC50 [1]: > 30000 nM | Tmax [2]: 4.98 min | IC50 [3]: 17 nM | IC50 [4]: 8 nM | IC50 [5]: 9 nM | IC50 [6]: > 10000 nM | Ratio IC50 (Homo sapiens [7]): > 580 | Ratio IC50 (Homo sapiens [8]): > 580 | Ratio IC50 (Homo sapiens [9]): 36 | Ratio IC50 (Homo sapiens [10]): > 580 | Activity [11]: 0% | half-life [12]: 3.48 h | AUC(0-inf) [13]: 4790 ng·h/mL | IC50 (Cytochrome P450 2C9): > 10000 nM | IC50 (Cytochrome P450 2D6): > 10000 nM | Activity (Mus musculus): Active | inhibition [14]: 60%
